This note sets out measurements from ChEMBL document CHEMBL5532634, “Oxazolidinone: A promising scaffold for the development of antibacterial drugs” (Eur J Med Chem, 2023).

Data set [1] relates to Staphylococcus epidermidis. Put plainly: Antibacterial activity against Staphylococcus epidermidis ATCC 12228 assessed as reduction in bacterial growth measured after 24 hrs by broth microdilution method. Type of data set: functional. (In general: Dilution methods test growth across graded concentrations, often in twofold steps.)
Data set [2] concerns Staphylococcus aureus. Put plainly: Antibacterial activity against Staphylococcus aureus ATCC 29213 assessed as bacterial growth inhibition incubated for 24 hrs by broth dilution method. Type of data set: functional.
Data set [3] concerns Staphylococcus aureus. In words: Antibacterial activity against methicillin-resistant Staphylococcus aureus ATCC 3300 assessed as reduction in microbial growth measured after 24 hrs by broth microdilution analysis. Type of data set: functional.
For data set [4], the system named is Escherichia coli. Put plainly: Antibacterial activity against Escherichia coli. Format: functional.
Data set [5] has as its system Streptococcus pneumoniae. In words: Antibacterial activity against Streptococcus pneumoniae. Format: functional.
Data set [6] has as its system Staphylococcus aureus. Put plainly: Antibacterial activity against Methicillin-resistant Staphylococcus aureus assessed as reduction in microbial growth by Muller Hinton broth based dilution assay. Format: functional.
Data set [7] deals with HT-29. In words: Anticancer activity against human HT-29 cells assessed as inhibition of cell proliferative measured after 48 hrs by MTT assay. Type of data set: functional, cell-based. The settings on record: HT-29, 48 h. A general note: Tetrazolium assays rely on reduction of a dye to a coloured formazan, in cell work by metabolically active cells.
The test system of data set [8] is MCF7. Put plainly: Anticancer activity against human MCF7 cells assessed as inhibition of cell proliferation measured after 48 hrs by MTT assay. Type of data set: functional, cell-based. The settings on record: MCF7, 48 h.
In data set [9] the test system is Staphylococcus aureus. Put plainly: Antibacterial activity against Staphylococcus aureus ATCC 25923 assessed as inhibition of bacterial growth incubated for 24 hrs by CLSI based broth microdilution method. Format: functional.
Data set [10] relates to Enterococcus faecalis. Put plainly: Antibacterial activity against Enterococcus faecalis ATCC 29212 assessed as inhibition of bacterial growth incubated for 24 hrs by CLSI based broth microdilution method. Type of data set: functional.
Data set [11] has as its system Streptococcus pneumoniae. Put plainly: Antibacterial activity against Streptococcus pneumoniae ATCC 49619 assessed as inhibition of bacterial growth incubated for 24 hrs by CLSI based broth microdilution method. Format: functional.
For data set [12], the system named is Bacillus subtilis. In words: Antibacterial activity against Bacillus subtilis ATCC 6633 assessed as inhibition of bacterial growth incubated for 24 hrs by CLSI based broth microdilution method. Type of data set: functional.
Data set [13] has as its system Staphylococcus aureus. In words: Antibacterial activity against Staphylococcus aureus ATCC 29213 assessed as reduction in microbial growth measured after 24 hrs by broth microdilution analysis. Format: functional.
Data set [14] has as its system Staphylococcus aureus. In words: Antibacterial activity against Staphylococcus aureus UC9213 assessed as reduction in bacterial growth. Format: functional.
Data set [15] has as its system Staphylococcus aureus. In words: In vivo antibacterial activity against Staphylococcus aureus UC9213 infected in PO dosed mouse assessed as reduction in bacterial infection measured after 6 days by hematoxylin and eosin staining based microscopic analysis. Type of data set: functional. The conditions noted are these: UC9213, 144 h, time 6 day.
Data set [16] concerns Staphylococcus aureus. Put plainly: Antibacterial activity against fluoroquinolone/methicillin resistant Staphylococcus aureus clinical isolate 19-26 assessed as bacterial growth inhibition measured after 16 to 18 hrs by serial dilution method. Type of data set: functional. The settings on record: time 16-18 hrs.
Data set [17] has as its system Staphylococcus aureus. In words: Antibacterial activity against vancomycin-resistant Staphylococcus aureus assessed as bacterial growth inhibition measured after 16 to 18 hrs by serial dilution method. Format: functional. The settings on record: time 16-18 hrs.
Data set [18] concerns Mycobacterium tuberculosis. In words: Antimycobacterial activity against Mycobacterium tuberculosis H37Rv assessed as reduction in bacterial cell growth by resazurin reduction method. Type of data set: functional.
Data set [19] can be described thus: Clearance in CF1 mouse. Type of data set: ADME. The conditions noted are these: in vivo.
Data set [20] concerns Staphylococcus aureus. In words: Antibacterial activity against methicillin-susceptible Staphylococcus aureus assessed as inhibition of bacterial growth. Type of data set: functional.
In data set [21] the test system is Staphylococcus aureus. Put plainly: Antibacterial activity against Methicillin-resistant Staphylococcus aureus assessed as inhibition of bacterial growth. Type of data set: functional.
The test system of data set [22] is Haemophilus influenzae. In words: Antibacterial activity against Haemophilus influenzae ATCC 49247 by broth microdilution method. Format: functional.
For data set [23], the system named is Streptococcus pneumoniae. In words: Antibacterial activity against Streptococcus pneumoniae ATCC 49619 assessed as reduction in bacterial growth measured after 18 hrs by CLSI based analysis. Format: functional.
The test system of data set [24] is Streptococcus pyogenes. Put plainly: Antibacterial activity Streptococcus pyogenes ATCC 12344 assessed as reduction in microbial growth by broth microdilution method. Format: functional.
In data set [25] the test system is Moraxella catarrhalis. Put plainly: Antibacterial activity against wild type Moraxella catarrhalis incubated for 20 hrs by two-fold serial dilution method. Type of data set: functional.
In data set [26] the test system is Staphylococcus aureus. In words: Antibacterial activity against Staphylococcus aureus ATCC 25923 assessed as growth inhibition measured after 18 hrs by CLSI based method. Format: functional.
For data set [27], the system named is Mycobacterium tuberculosis. Put plainly: Antimycobacterial activity against Mycobacterium tuberculosis assessed as reduction in bacterial growth. Type of data set: functional.
Data set [28] has as its system PC-3. Put plainly: Inhibition of mitochondrial protein synthesis in human PC-3 cells at 100 uM incubated for 5 days. The conditions noted are these: PC-3, 120 h. Format: functional, cell-based.
Data set [29] deals with Mycobacterium tuberculosis. Put plainly: Antimycobacterial activity against Mycobacterium tuberculosis H37Rv assessed as reduction in bacterial growth incubated for 7 days by resazurin based assay. Type of data set: functional. The conditions noted are these: 168 h, time 7 day. Background: The colour change of resazurin is a common sign of viable cells or microbes.
In data set [30] the test system is Enterococcus faecalis. Put plainly: Antibacterial activity against Enterococcus faecalis ATCC 29212 assessed as reduction in microbial growth after 24 hrs by two-fold serial dilution method. Format: functional.
For data set [31], the system named is Staphylococcus aureus. Put plainly: Antibacterial activity against vancomycin-resistant Staphylococcus aureus clinical isolate 1 assessed as inhibition of bacterial growth by broth microdilution method. Type of data set: functional.
The test system of data set [32] is Staphylococcus epidermidis. Put plainly: Antibacterial activity against methicillin-resistant Staphylococcus epidermidis ATCC 12228 assessed as reduction in microbial growth incubated for 18 hrs by broth microdilution method. Format: functional.
Data set [33] relates to Streptococcus pneumoniae. Put plainly: Antibacterial activity against Streptococcus pneumoniae ATCC 49619 assessed as inhibition of bacterial growth measured after 24 hrs by MH broth based assay. Type of data set: functional.
The test system of data set [34] is Staphylococcus aureus. Put plainly: Antibacterial activity against methicillin-resistant Staphylococcus aureus ATCC 4330 assessed as reduction in microbial growth incubated for 18 hrs by broth microdilution method. Format: functional.
For data set [35], the system named is Enterococcus faecium. In words: Antibacterial activity against Enterococcus faecium ATCC 19434 assessed as reduction in microbial growth after 24 hrs by two-fold serial dilution method. Format: functional.

The structures appear in SMILES notation. Values after ≈ are worked out from the molar mass of the structure shown.

As to `O=C(CO)N1CC=C(c2ccc(N3C[C@H](COc4cnsn4)OC3=O)cc2F)CC1`, the minimal inhibitory concentration (MIC) in data set [1] was 0.13 µg/mL (≈ 0.299 µM).
Consider `C/C(S)=N\C[C@H]1CN(c2cc(F)c3c(c2)OC[C@@H]2CCCN32)C(=O)O1`, for which the minimum inhibitory concentration (MIC) in data set [2] was 0.5 µg/mL (≈ 1.37 µM).
For `O=C1O[C@@H](COc2ccon2)CN1c1ccc(C2=CCOCC2)c(F)c1`, in data set [3], the MIC came to 0.5 µg/mL.
With `O=C(NO)[C@@H]1CN(c2ccc(C#CC#CC3CC3)c(F)c2)C(=O)O1`, the minimum inhibitory concentration (MIC) in data set [4] and in data set [5] was 0.004 µg/mL (≈ 0.0122 µM) each time.
Turning to `O=C1O[C@@H](Cn2ccnn2)CN1c1ccc(N2CCN(S(=O)(=O)c3cccc([N+](=O)[O-])c3)CC2)c(F)c1`, the minimum inhibitory concentration (MIC) in data set [6] is 0.5 µg/mL.
Take `O=C1NC2(CO1)O/C(=C\c1ccc(Cl)cc1)C(=O)N2CCCNc1ccnc2cc(Cl)ccc12` (configuration not stated): the IC50 was found to be 32.4 µM in data set [7] and 16.1 µM in data set [8].
With `CC(=O)NC[C@H]1CN(c2ccc(N3CCN(C(=O)/C=C/c4ccco4)CC3)nc2)C(=O)O1`, the MIC in data set [9] and in data set [10] was 8 µg/mL (≈ 18.2 µM) each time.
For `O=C([C@H](O)CO)N1CC=C(c2ccc(N3C[C@H](COc4cnsn4)OC3=O)cc2F)CC1`, in data set [1], the MIC worked out at 0.13 µg/mL (≈ 0.28 µM).
On to `CC(=O)NC[C@H]1CN(c2ccc(N3CCN(C(=O)c4ccco4)CC3)nc2)C(=O)O1`, for which, in [11], the MIC is more than 64 µg/mL.
As to `CC(=O)NC[C@H]1CN(c2cnc(N3CCN(C(=O)/C=C/c4ccco4)CC3)c(F)c2)C(=O)O1`, in [12], the MIC turned out to be 4 µg/mL (≈ 8.74 µM).
Regarding `O=C([C@H](O)CO)N1CC=C(c2ccc(N3C[C@H](COc4ccon4)OC3=O)cc2F)CC1`, in data set [13], the minimum inhibitory concentration (MIC) came to 0.25 µg/mL.
Turning to `CC(=O)NC[C@H]1CC(c2ccc(C3=CCN(C(=O)CO)CC3)c(F)c2)=NO1`, in [14], the minimum inhibitory concentration (MIC) is 1 µg/mL (≈ 2.66 µM). In data set [15], the ED50 stood at 9.1 mg/kg.
As to `O=C1C=CN(c2c(F)cc(N3C[C@H](CNc4ccon4)OC3=O)c(F)c2F)CC1` [CONTEZOLID], the minimal inhibitory concentration (MIC) in [16] was determined as 0.125 µg/mL (≈ 0.306 µM); in data set [17] it was 0.5 µg/mL (≈ 1.22 µM).
With `CN1CCN(c2ccc(N3C[C@H](CO)OC3=O)cc2F)C=N1` [DELPAZOLID], the MIC in data set [18] stood at 0.5 µg/mL (≈ 1.62 µM).
In turn, `CC(=O)NC[C@H]1CN(c2ccc(N3CCOCC3)c(F)c2)C(=O)O1` [LINEZOLID] came in with a clearance in [19] of 10.5 mL/min/kg. Further, the MIC in data set [20] and in [21] was 1 µg/mL (≈ 2.96 µM) throughout.
With `O=C([C@@H](O)CO)N1CC=C(c2c(F)cc(N3C[C@H](COc4ccon4)OC3=O)cc2F)CC1` [POSIZOLID], the MIC in [13] turned out to be 0.25 µg/mL.
Consider `CC(=O)NC[C@H]1CN(c2ccc(-c3ccc(CNCc4cnn[nH]4)cc3)c(F)c2)C(=O)O1` [RADEZOLID], for which the MIC90 in data set [22] amounted to 1 µg/mL (≈ 2.28 µM); in data set [25], 0.5 µg/mL (≈ 1.14 µM). Besides, the results for the minimum inhibitory concentration (MIC) in data set [23], in [24] and in data set [26] were 0.25 µg/mL (≈ 0.57 µM), 0.25 µg/mL and 1 µg/mL (≈ 2.28 µM), respectively.
Take `CC(=O)NC[C@H]1CN(c2ccc(N3CCSCC3)c(F)c2)C(=O)O1` [SUTEZOLID]: in [27], the minimal inhibitory concentration (MIC) came out at 0.125 µg/mL (≈ 0.354 µM).
With `COC(=O)NC[C@H]1CN(c2ccc(N3CC4(COC4)C3)c(F)c2)C(=O)O1` [TBI-223], the IC50 in [28] was more than 74 µM. Besides, in data set [29], the minimal inhibitory concentration (MIC) stood at 0.6 µg/mL (≈ 1.64 µM).
As to `Cn1nnc(-c2ccc(-c3ccc(N4C[C@H](COP(=O)(O)O)OC4=O)cc3F)cn2)n1` [TEDIZOLID PHOSPHATE], the minimal inhibitory concentration (MIC) in data set [30], in data set [31], in data set [33] and in [35] was 0.25 µg/mL each time. In addition, the MIC90 in [32] came out at 0.12 µg/mL. Moreover, the MIC50 in data set [34] stood at 0.12 µg/mL.

In general, MIC refers to the lowest concentration that inhibits growth of the organism. As a reminder, the IC50 is the concentration that inhibits the measured activity by half. By ED50 is commonly meant the midpoint of the dose-response relation. What is called clearance is a measure of how efficiently the substance is removed, as volume per time. Higher therefore signals efficient removal. As usually defined, the MIC50 is an inhibitory concentration at the 50% level, which refers to growth in some studies and to a panel of isolates in others.
